{
  "source": "patent US11370841B2",
  "about": "“Methods of treating fibroblast growth factor 19-mediated cancers and tumors” (NGM Biopharmaceuticals, Inc., priority 2016, dated 2022)",
  "key": {"[1]": {"system": "hepatic mRNA levels", "assay": "Hepatic gene expression in FGF19-treated db/db mice (qRT-PCR)"}, "[2]": {"system": "FGF19-mediated hepatocellular carcinoma", "assay": "AAV-FGF19 tumorigenicity and metabolic study in Stat3f/f and Stat3ΔHep mice", "settings": "for Reduction in hepatic mRNA levels of Cyp7a1 / Reduction in hepatic mRNA levels of Cyp8b: AAV-expressed FGF19, 12 months", "protocol": "Hepatocyte-specific Stat3 deletion. […] Stat3^f/f mice injected with AAV-TBG-Cre alone served as Stat3^ΔHep controls. Stat3^f/f mice were used as wild type controls. AAV-TBG-Cre drives Cre recombinase expression under TBG promoter, which allows hepatocyte-specific expression.\n52 weeks after AAV injection, mice were euthanized and examined for liver tumor formation. The maximum diameter of liver tumor nodules in each mouse was measured with a caliper and total numbers of tumor nodules per liver were recorded. Livers were weighed and collected for histological examination or gene expression analysis.\nGlucose and body composition. Blood concentrations of ad libitum fed glucose were measured in conscious animals from a hand-held glucometer (Accu-check, Roche Diagnostics) using tail vein blood. Body weight and body composition (EcoMRI whole body composition analyzer) were measured at designated times. Mice were euthanized 52 weeks post-AAV administration. Macroscopic liver tumors were counted and the maximal diameter of the tumors recorded.\nGene expression analysis.\nBlood parameters. Blood was collected from tail vein in un-anesthetized animals using microvette serum gel tubes (Sarstedt) for measurements of glucose, insulin, ALT, AST, ALP, bile acids, and FGF19 concentrations. Serum samples were prepared by centrifugation at 4° C. for 10 minutes at 6000 g after clotting at room temperature for 30 minutes. For HbA1c measurements, whole blood was collected after euthanasia by cardiac puncture into EDTA-tubes and quickly inverted multiple times. HbA1c (from whole blood samples) and liver enzyme (from serum samples) levels were measured on Cobas Integra 400 Clinical Analyzer (Roche Diagnostics). Serum FGF19 level was determined by FGF19 enzyme-linked immunosorbent assays (ELISA) (Biovendor). Serum insulin was assessed with ELISA kits from ALPCO. Concentrations of total bile acids in serum were determined using a 3β-hydroxysteroid dehydrogenase method (Diazyme). All assays were performed according to the manufacturers' instructions.\nHistology and immunohistochemistry. Livers were fixed in 10% neutral-buffered formalin and embedded in paraffin. 5 μm sections were deparaffinized in xylenes, rehydrated sequentially in graded ethanol (100%, 95%, 80%, 70%, 50%, 2 minutes each). Hematoxylin and eosin staining was performed using standard methods. For immunohistochemical studies, liver sections were subjected to antigen retrieval in a citrate-based Antigen Unmasking Solution (Vector Laboratories), and incubated for 30 minutes with 3% H2O2 at room temperature to block endogenous peroxidase activity. Sections were stained with primary antibodies against glutamine synthetase (Thermo Fisher), BrdU, PCNA, or STAT3 in PBS containing 10% goat serum. Biotinylated secondary antibodies, ABC-HRP reagent (Vectastain ABC kit, #PK-6100, Vector Laboratories) and di-amine-benzidine (DAB) colorimetric peroxidase substrate (#SK-4100, Vector Laboratories) were used for detection. When indicated, sections were counterstained with hematoxylin. Digital imaging microscopy was performed using a Leica DM4000 microscope equipped with DFC500 camera and a scanning platform (Leica). Images for the entire liver section were acquired by stitching 70-96 fields together using Surveyor program for morphometric analysis. Glutamine synthetase-positive tumor areas were quantified using Measure/Count/Area tool from ImagePro software."}, "[3]": {"system": "hepatocytes", "assay": "In vivo BrdU incorporation (osmotic pump, 6 days)", "design": "species or system mice", "protocol": "In vivo BrdU incorporation. For surgical implant, mice were anesthetized with isoflurane, and osmotic pumps (#1002, Alzet) releasing 8.5 mg/kg/day 5-bromo-2-deoxyuridine (BrdU, Sigma) and 0.4 mg/kg/day FGF19 protein were implanted subcutaneously on the back on day 1. Incisions were closed with surgical clippers and 3-0 silk suture. Mice were euthanized on day 6, and serum and livers were collected for exposure and BrdU incorporation analysis.\nHistology and immunohistochemistry. […] Hematoxylin and eosin staining was performed using standard methods. […] When indicated, sections were counterstained with hematoxylin.\nFlow cytometry. For quantification of BrdU incorporation by flow cytometry, livers were minced in RPMI media containing 0.1% collagenase for 30 minutes at 37° C. and passed through 70 μm filter. […]. Cells were analyzed on a BD Caliper flow cytometer and data were collected using CellQuest software and analyzed using Flowjo program.\nTo determine the direct effect of FGF19 on hepatocyte proliferation in a cell autonomous manner, the proliferative effects of FGF19 in vivo and in isolated hepatocytes were compared by assessing the incorporation of 5-bromo-2-deoxyuridine (BrdU) into newly synthesized DNA. FGF19 was administered at a concentration of 0.4 mg/kg/day and BrdU was administered at 8.5 mg/kg/day. After being administered to mice for six days through an osmotic pump, recombinant FGF19 protein induced incorporation of BrdU into hepatocytes as evidenced by immunohistochemical staining (with hematoxylin) and by flow cytometry analysis (hepatocytes were stained with 7-AAD and anti-BrdU-APC) (FIGS. 2A and 2B). […] Plasma concentrations of FGF19 were 5.2±1.2 ng/mL at the end of the study (FIG. 2C)."}, "[4]": {"system": "STAT3", "assay": "In vivo pSTAT3 activation, immunoblot of liver lysates", "settings": "db/db mice, 1 mg/kg FGF19 i.p.", "protocol": "In vivo pSTAT3 activation.\nImmunoblotting. Cell or tissue lysates were mixed with 4×SDS sample loading buffer (50 mM Tris-Cl, pH6.8, 2.5% SDS, urea, 4% β-mercaptoethanol), heated for 10 minutes at 95° C., and separated on 4-20% SDS-polyacrylamide gels (Life Technologies) in 1×MOPS running buffer. Proteins were transferred onto PVDF membranes (GE Healthcare). Membranes were blocked in TBST buffer (20 mM Tris-Cl, pH 7.6, 137 mM NaCl, 0.1% Tween-20) containing 5% non-fat dry milk for 1 hour at room temperature, and incubated with anti-pSTAT3^Y705, anti-total STAT3, anti-pERK, anti-total ERK, or anti-β-actin antibodies in blocking buffer at 4° C. overnight. Membranes were washed in TBST extensively, and bound proteins were detected with horseradish peroxidase-conjugated goat-anti-mouse IgG or goat-anti-rabbit IgG antibodies (GE Healthcare) for 1 hour at room temperature. Signals were developed with SuperSignal West Dura extended duration substrate (Thermo Scientific), and captured with a ChemiDoc XrS+ imaging system (Bio-Rad).\nTo examine STAT3 activation following FGF19 treatment in vivo, 11 week old diabetic db/db mice (on BKS background) were administered with 1 mg/kg of recombinant FGF19 protein i.p., and livers were harvested after 2 hours. Phosphorylation of STAT3 at tyrosine residue 705 (pSTAT3^Y705) was evident by immunoblotting of liver lysates (FIG. 1A). […]"}, "[5]": {"settings": "FGF19 protein 1 mg/kg i.p., 2 hours"}, "[6]": {"settings": "Stat3f/f mice, AAV-expressed FGF19"}},
  "data": [
    {"substance": "FGF19: Fibroblast growth factor 19, mature human 194 amino acid polypeptide (SEQ ID NO: 1); recombinant protein or AAV-expressed", "values": [
      {"measurement": "Hepatic mRNA levels of IL-6", "setting": "[1]; [5]", "result": "increased significantly"},
      {"measurement": "RNA levels of IL-11, LIF, OSM, CNTF and CTF1", "setting": "[1]; [5]", "result": "remained unchanged or undetectable"},
      {"measurement": "Hepatic Cyp7a1 mRNAs", "setting": "[1]; acute FGF19 treatment", "result": "efficiently suppressed"},
      {"measurement": "Body weight", "setting": "[2]; [6]", "result": "weight-lowering"},
      {"measurement": "Glucose", "setting": "[2]; [6]", "result": "glucose-lowering"},
      {"measurement": "Reduction in hepatic mRNA levels of Cyp7a1", "setting": "[2]; Stat3f/f mice", "result": 77, "unit": "%"},
      {"measurement": "Reduction in hepatic mRNA levels of Cyp8b", "setting": "[2]; Stat3f/f mice", "result": 95, "unit": "%"},
      {"measurement": "Reduction in hepatic mRNA levels of Cyp7a1", "setting": "[2]; Stat3ΔHep mice", "result": 87, "unit": "%"},
      {"measurement": "Reduction in hepatic mRNA levels of Cyp8b", "setting": "[2]; Stat3ΔHep mice", "result": 88, "unit": "%"},
      {"measurement": "BrdU-positive cells in liver (flow cytometry)", "setting": "[3]; 20 μg per mouse per day (0.4 mg/kg/day) by osmotic pump, six days", "result": "9.2+1.5%"},
      {"measurement": "PCNA and Ki-67 expression", "setting": "[3]; FGF19-treated mice, osmotic pump, six days", "result": "higher"},
      {"measurement": "Plasma concentrations of FGF19 at the end of the study", "setting": "[3]; osmotic pump 0.4 mg/kg/day, day 6", "result": "5.2 ± 1.2", "unit": "ng/mL"},
      {"measurement": "Phosphorylation of ERK1 and ERK2 in the liver", "setting": "[4]; 2 hours", "result": "induced phosphorylation"},
      {"measurement": "Phosphorylation of STAT3 at tyrosine residue 705 (pSTAT3 Y705) in liver lysates", "setting": "[4]; livers harvested after 2 hours", "result": "evident"}
    ]}
  ]
}
